Experimental data published in PubChem BioAssay AID256 (DTP/NCI, 2004).
Several values for one entry are separate records, joined by “and”; a condition that tells them apart may be missing. Equal values may be shown once. Toxic doses and inconclusive results are not listed.

System: CD2F1 mice, L1210 leukemia ip, survival T/C
Experiment: NCI In Vivo Anticancer Drug Screen. Data for tumor model L1210 Leukemia (intraperitoneal) in CD2F1 (CDF1) mice
Settings: higher = longer survival
In short: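 Activity against a transplanted murine tumor was judged by comparing the compound group with a vehicle group. The outcome in the treated animals was divided by that in the controls.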

[1] = endpoint: mean survival time, dose: 50.0 mg/kg/injection, schedule: Q01DX009 (ip), vehicle: saline with Tween-80
[2] = endpoint: mean survival time, dose: 100.0 mg/kg/injection, schedule: Q01DX009 (ip), vehicle: saline with Tween-80
[3] = endpoint: mean survival time, dose: 100.0 mg/kg/injection, schedule: Q04DX003 (ip), vehicle: saline with Tween-80
[4] = endpoint: mean survival time, dose: 200.0 mg/kg/injection, schedule: Q01DX009 (ip), vehicle: saline with Tween-80
[5] = endpoint: mean survival time, dose: 200.0 mg/kg/injection, schedule: Q04DX003 (ip), vehicle: saline with Tween-80
[6] = endpoint: mean survival time, dose: 25.0 mg/kg/injection, schedule: Q01DX009 (ip), vehicle: saline with Tween-80
[7] = endpoint: mean survival time, dose: 25.0 mg/kg/injection, schedule: Q04DX003 (ip), vehicle: saline with Tween-80
[8] = endpoint: mean survival time, dose: 50.0 mg/kg/injection, schedule: Q04DX003 (ip), vehicle: saline with Tween-80
[9] = endpoint: mean survival time, dose: 12.5 mg/kg/injection, schedule: Q01DX009 (ip), vehicle: saline with Tween-80
[10] = endpoint: mean survival time, dose: 400.0 mg/kg/injection, schedule: Q04DX003 (ip), vehicle: saline with Tween-80
[11] = endpoint: mean survival time, dose: 400.0 mg/kg/injection, schedule: Q01DX009 (ip), vehicle: saline with Tween-80

CCOC(=O)Nc1cc2c(c(N)n1)N=C(c1ccc(-c3ccccc3)cc1)CN2
T/C (endpoint: mean survival time, dose: 0.78 mg/kg/injection, schedule: Q01DX009 (ip), vehicle: Klucel (hydroxypropylcellulose) (HPC)): 106 % of control | T/C (endpoint: mean survival time, dose: 1.56 mg/kg/injection, schedule: Q01DX009 (ip), vehicle: Klucel (hydroxypropylcellulose) (HPC)): 112 % of control | T/C (endpoint: mean survival time, dose: 3.12 mg/kg/injection, schedule: Q01DX009 (ip), vehicle: Klucel (hydroxypropylcellulose) (HPC)): 114 % of control and 111 % of control | T/C (endpoint: mean survival time, dose: 6.25 mg/kg/injection, schedule: Q01DX009 (ip), vehicle: Klucel (hydroxypropylcellulose) (HPC)): 109 % of control | T/C (endpoint: mean survival time, dose: 12.5 mg/kg/injection, schedule: Q01DX001 (ip), vehicle: Klucel (hydroxypropylcellulose) (HPC)): 115 % of control | T/C (endpoint: mean survival time, dose: 12.5 mg/kg/injection, schedule: Q01DX009 (ip), vehicle: Klucel (hydroxypropylcellulose) (HPC)): 89 % of control | T/C (endpoint: mean survival time, dose: 50.0 mg/kg/injection, schedule: Q01DX001 (ip), vehicle: Klucel (hydroxypropylcellulose) (HPC)): 121 % of control

CCC/C=C/C=C/C(=O)OC1/C(=C/C(=O)OC)CC2CC(C(C)O)OC(=O)CC(O)CC3CC(OC(C)=O)C(C)(C)C(O)(CC4C/C(=C/C(=O)OC)CC(/C=C/C(C)(C)C1(O)O2)O4)O3 (configuration not stated)
T/C (endpoint: median survival time, dose: 18.75 micrograms/kg/injection, schedule: Q01DX009 (ip), vehicle: saline + alcohol): 113 % of control and 117 % of control | T/C (endpoint: median survival time, dose: 37.5 micrograms/kg/injection, schedule: Q01DX009 (ip), vehicle: saline + alcohol): 124 % of control | T/C (endpoint: median survival time, dose: 150.0 micrograms/kg/injection, schedule: Q01DX009 (ip), vehicle: saline + alcohol): 151 % of control

O=C(O)c1cccc2c1-c1c(cccc1[N+](=O)[O-])C2
T/C [1]: 96 % of control | T/C [2]: 97 % of control | T/C [3]: 101 % of control | T/C [4]: 91 % of control | T/C [5]: 100 % of control

CCOC(=O)c1cnc(=O)[nH]c1N
T/C [6]: 101 % of control | T/C [7]: 104 % of control | T/C [1]: 104 % of control | T/C [8]: 98 % of control | T/C [2]: 96 % of control | T/C [3]: 89 % of control and 100 % of control | T/C [5]: 98 % of control

CN1CCC(CN2c3ccccc3Sc3ccccc32)C1 (configuration not stated)
T/C [9]: 107 % of control | T/C [6]: 102 % of control | T/C [1]: 123 % of control

CC1CC(=O)C=C(O)C1 (configuration not stated)
T/C [3]: 93 % of control | T/C [5]: 93 % of control | T/C [10]: 93 % of control

CN(Cc1c[nH]c2nc(N)nc(N)c2c1=O)c1ccc(C(=O)NC(CCC(=O)O)C(=O)O)cc1 (configuration not stated)
T/C (endpoint: mean survival time, dose: 0.5 mg/kg/injection, schedule: Q01DX005 (ip), vehicle: sodium bicarbonate): 97 % of control and 98 % of control | T/C (endpoint: mean survival time, dose: 1.0 mg/kg/injection, schedule: Q01DX005 (ip), vehicle: distilled water + Tween-80): 105 % of control | T/C (endpoint: mean survival time, dose: 1.0 mg/kg/injection, schedule: Q01DX005 (ip), vehicle: sodium bicarbonate): 91 % of control and 108 % of control | T/C (endpoint: mean survival time, dose: 2.0 mg/kg/injection, schedule: Q01DX005 (ip), vehicle: distilled water + Tween-80): 102 % of control | T/C (endpoint: mean survival time, dose: 2.0 mg/kg/injection, schedule: Q01DX005 (ip), vehicle: sodium bicarbonate): 97 % of control and 103 % of control | T/C (endpoint: mean survival time, dose: 4.0 mg/kg/injection, schedule: Q01DX005 (ip), vehicle: distilled water + Tween-80): 100 % of control | T/C (endpoint: mean survival time, dose: 4.0 mg/kg/injection, schedule: Q01DX005 (ip), vehicle: sodium bicarbonate): 121 % of control and 104 % of control | T/C (endpoint: mean survival time, dose: 8.0 mg/kg/injection, schedule: Q01DX005 (ip), vehicle: distilled water + Tween-80): 97 % of control | T/C (endpoint: mean survival time, dose: 8.0 mg/kg/injection, schedule: Q01DX005 (ip), vehicle: sodium bicarbonate): 101 % of control | T/C (endpoint: mean survival time, dose: 16.0 mg/kg/injection, schedule: Q01DX005 (ip), vehicle: distilled water + Tween-80): 102 % of control | T/C (endpoint: mean survival time, dose: 16.0 mg/kg/injection, schedule: Q01DX005 (ip), vehicle: sodium bicarbonate): 98 % of control and 102 % of control

CC1OC(c2ccccc2)OC1C (configuration not stated)
T/C [3]: 94 % of control | T/C [5]: 92 % of control | T/C [10]: 90 % of control

COc1ccc(-n2c(=S)[nH]c3ccc(C)cc3c2=O)cc1
T/C [2]: 97 % of control | T/C [4]: 100 % of control | T/C [11]: 91 % of control

CC[C@@H](O)C[C@H]1CCC[C@@]2(C[C@@H]3OC(=O)/C=C/[C@@](C)(O)[C@@H](O)[C@H](C)[C@@H](O)[C@H](OC4CCC(N(C)C)C(C)O4)[C@@H](O)[C@](C)(O)CCCCC/C=C/[C@@H]4CC(C)(C)O[C@@]4(O)C[C@H](O2)[C@H]3C)O1 (some centres not stated)
T/C (endpoint: mean survival time, dose: 0.25 mg/kg/injection, schedule: Q01DX009 (ip), vehicle: saline): 109 % of control

ClCc1ccc(CCl)cc1
T/C (endpoint: mean survival time, dose: 25.0 mg/kg/injection, schedule: Q04DX003 (ip), vehicle: Klucel (hydroxypropylcellulose) (HPC)): 98 % of control | T/C (endpoint: mean survival time, dose: 50.0 mg/kg/injection, schedule: Q04DX003 (ip), vehicle: Klucel (hydroxypropylcellulose) (HPC)): 105 % of control | T/C (endpoint: mean survival time, dose: 100.0 mg/kg/injection, schedule: Q04DX003 (ip), vehicle: Klucel (hydroxypropylcellulose) (HPC)): 89 % of control

Cc1ncc([N+](=O)[O-])n1CCSC(N)=O
T/C [9]: 103 % of control | T/C [6]: 96 % of control | T/C [1]: 102 % of control | T/C [2]: 100 % of control | T/C [4]: 100 % of control | T/C [11]: 100 % of control

COc1ccc(-c2nc3c(N)nc(N)nc3nc2N)cc1OC
T/C (endpoint: mean survival time, dose: 12.5 mg/kg/injection, schedule: Q01DX009 (ip), vehicle: water): 105 % of control | T/C (endpoint: mean survival time, dose: 25.0 mg/kg/injection, schedule: Q01DX009 (ip), vehicle: water): 103 % of control | T/C (endpoint: mean survival time, dose: 50.0 mg/kg/injection, schedule: Q01DX009 (ip), vehicle: water): 103 % of control | T/C (endpoint: mean survival time, dose: 100.0 mg/kg/injection, schedule: Q01DX009 (ip), vehicle: water): 98 % of control | T/C (endpoint: mean survival time, dose: 200.0 mg/kg/injection, schedule: Q01DX009 (ip), vehicle: water): 88 % of control

CC(=O)OC1(C)CC(C)C(=O)C(C(O)CC2CC(=O)NC(=O)C2)C1 (configuration not stated)
T/C (endpoint: mean survival time, dose: 0.03 mg/kg/injection, schedule: Q01DX009 (ip), vehicle: saline): 103 % of control | T/C (endpoint: mean survival time, dose: 0.04 mg/kg/injection, schedule: Q01DX009 (ip), vehicle: saline): 94 % of control | T/C (endpoint: mean survival time, dose: 0.06 mg/kg/injection, schedule: Q01DX009 (ip), vehicle: saline): 105 % of control and 107 % of control | T/C (endpoint: mean survival time, dose: 0.13 mg/kg/injection, schedule: Q01DX009 (ip), vehicle: saline): 114 % of control

C1=N/C=C\C=C/c2ccc[n+](CCCCC[n+]3ccccc3-c3ccccn3)c21
T/C (endpoint: mean survival time, dose: 7.5 mg/kg/injection, schedule: Q01DX001 (ip), vehicle: saline): 98 % of control | T/C (endpoint: mean survival time, dose: 7.5 mg/kg/injection, schedule: Q04DX003 (ip), vehicle: saline): 108 % of control | T/C (endpoint: mean survival time, dose: 15.0 mg/kg/injection, schedule: Q01DX001 (ip), vehicle: saline): 98 % of control | T/C (endpoint: mean survival time, dose: 15.0 mg/kg/injection, schedule: Q04DX003 (ip), vehicle: saline): 100 % of control | T/C (endpoint: mean survival time, dose: 30.0 mg/kg/injection, schedule: Q01DX001 (ip), vehicle: saline): 98 % of control | T/C (endpoint: mean survival time, dose: 30.0 mg/kg/injection, schedule: Q04DX003 (ip), vehicle: saline): 102 % of control

CC(C)(SSC(C)(C)C(N)C(=O)O)C(N)C(=O)O (configuration not stated)
T/C (endpoint: mean survival time, dose: 100.0 mg/kg/injection, schedule: Q01DX001 (ip), vehicle: saline with Tween-80): 108 % of control | T/C [2]: 94 % of control | T/C (endpoint: mean survival time, dose: 200.0 mg/kg/injection, schedule: Q01DX001 (ip), vehicle: saline with Tween-80): 101 % of control | T/C [4]: 93 % of control | T/C (endpoint: mean survival time, dose: 400.0 mg/kg/injection, schedule: Q01DX001 (ip), vehicle: saline with Tween-80): 109 % of control | T/C [11]: 90 % of control

COC(=O)/C1=C/CCCCCC(=O)C1C(=O)OC (configuration not stated)
T/C [2]: 96 % of control | T/C [3]: 96 % of control | T/C [4]: 96 % of control | T/C [5]: 100 % of control | T/C [11]: 93 % of control | T/C [10]: 96 % of control

COc1cc(NCCCCNC(C)C)c2ncccc2c1
T/C (endpoint: mean survival time, dose: 75.0 mg/kg/injection, schedule: Q01DX001 (ip), vehicle: saline): 95 % of control

COc1ccc2cc(O)ccc2c1
T/C [2]: 96 % of control | T/C [3]: 104 % of control | T/C [4]: 98 % of control | T/C [5]: 113 % of control | T/C [11]: 100 % of control | T/C [10]: 90 % of control

c1ccc([As]2[As](c3ccccc3)[As](c3ccccc3)[As]2c2ccccc2)cc1 (configuration not stated)
T/C (endpoint: mean survival time, dose: 5.0 mg/kg/injection, schedule: Q01DX001 (ip), vehicle: saline): 101 % of control | T/C (endpoint: mean survival time, dose: 10.0 mg/kg/injection, schedule: Q01DX001 (ip), vehicle: saline): 108 % of control | T/C (endpoint: mean survival time, dose: 20.0 mg/kg/injection, schedule: Q01DX001 (ip), vehicle: saline): 111 % of control | T/C (endpoint: mean survival time, dose: 40.0 mg/kg/injection, schedule: Q01DX001 (ip), vehicle: saline): 113 % of control | T/C (endpoint: mean survival time, dose: 80.0 mg/kg/injection, schedule: Q01DX001 (ip), vehicle: saline): 119 % of control

[Cl][Pt+2][Cl].[NH-]c1cccc(F)c1.[NH-]c1cccc(F)c1
T/C (endpoint: mean survival time, dose: 12.5 mg/kg/injection, schedule: Q04DX003 (ip), vehicle: saline with Tween-80): 97 % of control | T/C [7]: 114 % of control | T/C [8]: 102 % of control
